# Measurements published in PMC11277489, “Novel Piperazine Derivatives of Vindoline as Anticancer Agents” (International Journal of Molecular Sciences, 2024).
# Experiments:
# [1] = tested on: A549/ATCC; assay: NCI60 one-dose screen (10 μM), Non-small Cell Lung Cancer; format: cell-based; settings: Homo sapiens; 10 μM; A549/ATCC, Non-small Cell Lung Cancer; read-out: Growth percent rate
# [2] = tested on: 60 human tumor cell lines (NCI60); assay: NCI60 one-dose screen (10 μM), whole panel; format: cell-based; settings: 10 μM; mean over 60 human cancer cell lines; read-out: Growth percent rate, Mean
# [3] = tested on: IGROV1; assay: NCI60 one-dose screen (10 μM), Ovarian Cancer; format: cell-based; settings: Homo sapiens, IGROV-1; 10 μM; IGROV1, Ovarian Cancer; read-out: Growth percent rate
# [4] = tested on: COLO 205; assay: NCI60 one-dose screen (10 μM), Colon Cancer; format: cell-based, human; settings: Homo sapiens; 10 μM; COLO 205, Colon Cancer; read-out: Growth percent rate
# [5] = tested on: SNB-75; assay: NCI60 one-dose screen (10 μM), CNS Cancer; format: cell-based, human; settings: Homo sapiens; 10 μM; SNB-75, CNS Cancer; read-out: Growth percent rate
# [6] = tested on: A498; assay: NCI60 one-dose screen (10 μM), Renal Cancer; format: cell-based; settings: Homo sapiens; 10 μM; A498, Renal Cancer; read-out: Growth percent rate
# [7] = tested on: MOLT-4; assay: NCI60 one-dose screen (10 μM), Leukemia; format: cell-based, human; settings: Homo sapiens; 10 μM; MOLT-4, Leukemia; read-out: Growth percent rate
# [8] = tested on: OVCAR-4; assay: NCI60 one-dose screen (10 μM), Ovarian Cancer; format: cell-based; settings: Homo sapiens; 10 μM; OVCAR-4, Ovarian Cancer; read-out: Growth percent rate
# [9] = tested on: NCI-H460; assay: NCI60 one-dose screen (10 μM), Non-small Cell Lung Cancer; format: cell-based; settings: Homo sapiens; 10 μM; NCI-H460, Non-small Cell Lung Cancer; read-out: Growth percent rate
# [10] = tested on: HCT-15; assay: NCI60 one-dose screen (10 μM), Colon Cancer; format: cell-based; settings: Homo sapiens; 10 μM; HCT-15, Colon Cancer; read-out: Growth percent rate
# [11] = tested on: 786–0; assay: NCI60 one-dose screen (10 μM), Renal Cancer; format: cell-based; settings: Homo sapiens; 10 μM; 786-0, Renal Cancer; read-out: Growth percent rate
# [12] = tested on: MCF7; assay: NCI60 one-dose screen (10 μM), Breast Cancer; format: cell-based; settings: Homo sapiens; 10 μM; MCF7, Breast Cancer; read-out: Growth percent rate
# [13] = tested on: UACC-257; assay: NCI60 one-dose screen (10 μM), Melanoma; format: cell-based; settings: Homo sapiens; 10 μM; UACC-257, Melanoma; read-out: Growth percent rate
# [14] = tested on: NCI-H322M; assay: NCI60 one-dose screen (10 μM), Non-small Cell Lung Cancer; format: cell-based; settings: Homo sapiens, 10 μM, Non-small Cell Lung Cancer, read-out: Growth percent rate
# [15] = tested on: HCC-2998; assay: NCI60 one-dose screen (10 μM), Colon Cancer; format: cell-based; settings: Homo sapiens; 10 μM; HCC-2998, Colon Cancer; read-out: Growth percent rate
# [16] = tested on: HS 578T; assay: NCI60 one-dose screen (10 μM), Breast Cancer; format: cell-based; settings: Homo sapiens; 10 μM; HS 578T, Breast Cancer; read-out: Growth percent rate
# [17] = tested on: ACHN; assay: NCI60 one-dose screen (10 μM), Renal Cancer; format: cell-based; settings: Homo sapiens, 10 μM, Renal Cancer, read-out: Growth percent rate
# [18] = tested on: U251; assay: NCI60 one-dose screen (10 μM), CNS Cancer; format: cell-based; settings: Homo sapiens, U-251; 10 μM; U251, CNS Cancer; read-out: Growth percent rate
# [19] = tested on: SF-268; assay: NCI60 one-dose screen (10 μM), CNS Cancer; format: cell-based; settings: Homo sapiens; 10 μM; SF-268, CNS Cancer; read-out: Growth percent rate
# [20] = tested on: OVCAR-8; assay: NCI60 one-dose screen (10 μM), Ovarian Cancer; format: cell-based; settings: Homo sapiens; 10 μM; OVCAR-8, Ovarian Cancer; read-out: Growth percent rate
# [21] = tested on: NCI-H522; assay: NCI60 one-dose screen (10 μM), Non-small Cell Lung Cancer; format: cell-based; settings: Homo sapiens; 10 μM; NCI-H522, Non-small Cell Lung Cancer; read-out: Growth percent rate
# [22] = tested on: EKVX; assay: as above; format: cell-based; settings: Homo sapiens, 10 μM, Non-small Cell Lung Cancer, read-out: Growth percent rate
# [23] = tested on: CCRF-CEM; assay: NCI60 one-dose screen (10 μM), Leukemia; format: cell-based; settings: Homo sapiens, 10 μM, Leukemia, read-out: Growth percent rate
# [24] = tested on: SK-MEL-2; assay: NCI60 one-dose screen (10 μM), Melanoma; format: cell-based; settings: Homo sapiens; 10 μM; SK-MEL-2, Melanoma; read-out: Growth percent rate
# [25] = tested on: SW-620; assay: NCI60 one-dose screen (10 μM), Colon Cancer; format: cell-based; settings: Homo sapiens; 10 μM; SW-620, Colon Cancer; read-out: Growth percent rate
# [26] = tested on: K-562; assay: NCI60 one-dose screen (10 μM), Leukemia; format: cell-based; settings: Homo sapiens, K562; 10 μM; K-562, Leukemia; read-out: Growth percent rate
# [27] = tested on: RPMI-8226; assay: NCI60 one-dose screen (10 μM), Leukemia; format: cell-based; settings: Homo sapiens; 10 μM; RPMI-8226, Leukemia; read-out: Growth percent rate
# [28] = tested on: SN12C; assay: NCI60 one-dose screen (10 μM), Renal Cancer; format: cell-based; settings: Homo sapiens, 10 μM, Renal Cancer, read-out: Growth percent rate
# [29] = tested on: HCT-116; assay: NCI60 one-dose screen (10 μM), Colon Cancer; format: cell-based; settings: Homo sapiens; 10 μM; HCT-116, Colon Cancer; read-out: Growth percent rate
# [30] = tested on: NCI-H23; assay: NCI60 one-dose screen (10 μM), Non-small Cell Lung Cancer; format: cell-based; settings: Homo sapiens; 10 μM; NCI-H23, Non-small Cell Lung Cancer; read-out: Growth percent rate
# [31] = tested on: RXF 393; assay: NCI60 one-dose screen (10 μM), Renal Cancer; format: cell-based, human; settings: Homo sapiens; 10 μM; RXF 393, Renal Cancer; read-out: Growth percent rate
# [32] = tested on: CAKI-1; assay: NCI60 one-dose screen (10 μM), Renal Cancer; format: cell-based; settings: Homo sapiens; 10 μM; CAKI-1, Renal Cancer; read-out: Growth percent rate
# [33] = tested on: HL-60(TB); assay: NCI60 one-dose screen (10 μM), Leukemia; format: cell-based; settings: Homo sapiens; 10 μM; HL-60(TB), Leukemia; read-out: Growth percent rate
# [34] = tested on: HOP-62; assay: NCI60 one-dose screen (10 μM), Non-small Cell Lung Cancer; format: cell-based; settings: Homo sapiens; 10 μM; HOP-62, Non-small Cell Lung Cancer; read-out: Growth percent rate
# [35] = tested on: SK-MEL-5; assay: NCI60 one-dose screen (10 μM), Melanoma; format: cell-based, human; settings: Homo sapiens; 10 μM; SK-MEL-5, Melanoma; read-out: Growth percent rate
# [36] = tested on: MDA-MB-435; assay: NCI60 one-dose screen (10 μM), Melanoma; format: cell-based; settings: Homo sapiens; 10 μM; MDA-MB-435, Melanoma; read-out: Growth percent rate
# [37] = tested on: OVCAR-3; assay: NCI60 one-dose screen (10 μM), Ovarian Cancer; format: cell-based; settings: Homo sapiens; 10 μM; OVCAR-3, Ovarian Cancer; read-out: Growth percent rate
# [38] = tested on: SK-MEL-28; assay: NCI60 one-dose screen (10 μM), Melanoma; format: cell-based; settings: Homo sapiens; 10 μM; SK-MEL-28, Melanoma; read-out: Growth percent rate
# [39] = tested on: HT29; assay: NCI60 one-dose screen (10 μM), Colon Cancer; format: cell-based; settings: Homo sapiens, HT-29; 10 μM; HT29, Colon Cancer; read-out: Growth percent rate
# [40] = tested on: DU-145; assay: NCI60 one-dose screen (10 μM), Prostate Cancer; format: cell-based; settings: Homo sapiens; 10 μM; DU-145, Prostate Cancer; read-out: Growth percent rate
# [41] = tested on: M14; assay: NCI60 one-dose screen (10 μM), Melanoma; format: cell-based; settings: Homo sapiens; 10 μM; M14, Melanoma; read-out: Growth percent rate
# [42] = tested on: SF-539; assay: NCI60 one-dose screen (10 μM), CNS Cancer; format: cell-based, human; settings: Homo sapiens; 10 μM; SF-539, CNS Cancer; read-out: Growth percent rate
compound,measurement,setting,value
CCC12C=CCN3CCC4(c5ccc(OC)cc5N(C)C4C(O)(C(=O)OC)C1OC(=O)CCCN1CCN(C)CC1)C32 (stereo not drawn) [Compound 3],activity at 10 µM,[1],98.2%
same,activity at 10 µM,[2],87.8%
same,activity at 10 µM,[3],102%
same,activity at 10 µM,[4],90%
same,activity at 10 µM,[5],85.3%
same,activity at 10 µM,[6],83.2%
same,activity at 10 µM,[7],102%
same,activity at 10 µM,[8],101%
same,activity at 10 µM,[9],97.7%
same,activity at 10 µM,[10],91.3%
same,activity at 10 µM,[11],106%
same,activity at 10 µM,[12],78%
same,activity at 10 µM,[13],90.1%
same,activity at 10 µM,[14],96.9%
same,activity at 10 µM,[15],92.4%
same,activity at 10 µM,[16],78.6%
same,activity at 10 µM,[17],103%
same,activity at 10 µM,[18],89.9%
same,activity at 10 µM,[19],90.8%
same,activity at 10 µM,[20],92.9%
same,activity at 10 µM,[21],45.9%
same,activity at 10 µM,[22],96.5%
same,activity at 10 µM,[23],108%
same,activity at 10 µM,[24],84.7%
same,activity at 10 µM,[25],87%
same,activity at 10 µM,[26],66.9%
same,activity at 10 µM,[27],112%
same,activity at 10 µM,[28],89.1%
same,activity at 10 µM,[29],112%
same,activity at 10 µM,[30],90%
same,activity at 10 µM,[31],73%
same,activity at 10 µM,[32],54.5%
same,activity at 10 µM,[33],91%
same,activity at 10 µM,[34],79.9%
same,activity at 10 µM,[35],74.5%
same,activity at 10 µM,[36],28.9%
same,activity at 10 µM,[37],78.1%
same,activity at 10 µM,[38],85%
same,activity at 10 µM,[39],98.8%
same,activity at 10 µM,[40],99.6%
same,activity at 10 µM,[41],103%
same,activity at 10 µM,[42],88.1%
CCC12C=CCN3CCC4(c5cc(NC(=O)CN6CCN(C)CC6)c(OC)cc5N(C)C4C(O)(C(=O)OC)C1OC(C)=O)C32 (stereo not drawn) [Compound 16],activity at 10 µM,[1],97.1%
same,activity at 10 µM,[2],103%
same,activity at 10 µM,[3],112%
same,activity at 10 µM,[4],105%
same,activity at 10 µM,[5],95.6%
same,activity at 10 µM,[6],158%
same,activity at 10 µM,[7],108%
same,activity at 10 µM,[8],109%
same,activity at 10 µM,[9],142%
same,activity at 10 µM,[10],101%
same,activity at 10 µM,[11],106%
same,activity at 10 µM,[12],84.3%
same,activity at 10 µM,[13],-7.95%
same,activity at 10 µM,[14],101%
same,activity at 10 µM,[15],106%
same,activity at 10 µM,[16],111%
same,activity at 10 µM,[17],104%
same,activity at 10 µM,[18],97.4%
same,activity at 10 µM,[19],116%
same,activity at 10 µM,[20],97.8%
same,activity at 10 µM,[21],90.2%
same,activity at 10 µM,[22],94.8%
same,activity at 10 µM,[23],112%
same,activity at 10 µM,[24],108%
same,activity at 10 µM,[25],124%
same,activity at 10 µM,[26],85.8%
same,activity at 10 µM,[27],102%
same,activity at 10 µM,[28],109%
same,activity at 10 µM,[29],101%
same,activity at 10 µM,[30],103%
same,activity at 10 µM,[31],102%
same,activity at 10 µM,[32],89.5%
same,activity at 10 µM,[33],97.5%
same,activity at 10 µM,[34],104%
same,activity at 10 µM,[35],102%
same,activity at 10 µM,[36],114%
same,activity at 10 µM,[37],138%
same,activity at 10 µM,[38],111%
same,activity at 10 µM,[39],104%
same,activity at 10 µM,[40],115%
same,activity at 10 µM,[41],101%
same,activity at 10 µM,[42],101%
